The results in this text go back to patent US12521364B2, “Composition for preventing or treating neuropathic pain, containing syringaresinol” (UNIVERSITY-INDUSTRY COOPERATION GROUP OF KYUNG HEE …, priority 2019, dated 2026).

For experiment [1], the system named is iNOS. In words: Western blot of iNOS in BV2 cells with oxaliplatin-induced inflammatory response. The class given is cell-based. On the procedure:
(§1) BV2 cell lines (microglia) were cultured in Dulbecco's modified Eagle's medium (DMEM; GIBCO, Grand Island, NY, USA) containing 10% fetal bovine serum (FBS; GIBCO) and 1% penicillin in a 5% CO2 incubator (37° C.). […]
(§2) Thereafter, proteins were isolated from the cells of each treatment group. […] The isolated proteins were quantified for each subject by using the Bradford (Bio-rad, USA) method using bovine serum albumin (BSA, Sigma, USA), and then 20 μg of the proteins were separated by 10% sodium dodecyl sulfate—polyacrylamide gel electrophoresis (SDS-PAGE) and transferred to polyvinylidene difluoride (PVDF) membranes (membrane, Gendepot, UK). […] The protein identification and quantitative analysis were performed using an imaging system (ChemiDoc XRS+ System, Bio-Rad).
(§3) All of the results were analyzed using the SPSS 21.0 package (SPSS Inc., Chicago, USA), and the experimental results were presented as the mean±standard deviation values. Statistical significance was validated using one-way analysis of variance (ANOVA) and then analyzed by Fisher's LSD test, and the significance probability value (p-value) was recognized only when p<0.05 and p<0.01.
(In general: Immunoblotting shows a protein as a band on a membrane.)

For experiment [2], the system named is p-ERK MAPK. In words: Western blot of p-ERK in BV2 cells with oxaliplatin-induced inflammatory response. The class given is cell-based. As to the method:
as §1, §2, §3

Experiment [3] deals with p-NF-κB. In words: Western blot of p-NF-κB in BV2 cells with oxaliplatin-induced inflammatory response. Format: cell-based. On the procedure:
as §1, §2, §3

The test system of experiment [4] is paclitaxel-induced neuropathic pain animal models. In words: Cold allodynia (acetone test) in paclitaxel-induced neuropathic pain animal models. Format: in vivo, c57/bl6 male mice. To be noted: 10 mg/kg oral, 1 hour after administration, day 14 after first paclitaxel injection, acetone to rear paws. On the procedure: Paclitaxel (Sigma-Aldrich) dissolved in a 1:1 solution of Cremophor EL and ethanol at 6 mg/mL was diluted to a concentration of 0.2 mg/mL, and 2 mg/kg of the diluent was intraperitoneally administered to ten 6-week-old c57/bl6 male mice four times. Injections were conducted on days 0, 2, 4, and 6 at intervals of every other day. A significant pain was observed from about 10 days after the first injection. In the paclitaxel-induced neuropathic pain animal models, the response occurring after about 20 μL of acetone was applied to both rear paws of the animal models to cause cold allodynia was observed and recorded for about 15 seconds. The behaviors of withdrawal, shaking, and licking of the paws were observed and recorded. A total of three repeated trials were performed, and the average number of behaviors recorded was checked. On the 14th day after the first injection of paclitaxel, animal models showing a statistically significant level of pain were divided into a drug group administered 10 mg/kg of syringaresinol (syringaresinol, n=5) and a control group orally administered 0.06% Tween 80 (vehicle, n=5), and then were administered the corresponding drugs to thereby cause cold allodynia after 1 hour.

The subject of experiment [5] is oxaliplatin-induced neuropathic pain animal models. In words: Cold allodynia (acetone test) in oxaliplatin-induced neuropathic pain animal models. The class given is in vivo, c57/bl6 male mice. To be noted: 10 mg/kg oral, 1 hour after administration, day 3 after oxaliplatin injection, acetone to rear paws. As to the method:
In the paclitaxel-induced neuropathic pain animal models, the response occurring after about 20 μL of acetone was applied to both rear paws of the animal models to cause cold allodynia was observed and recorded for about 15 seconds. The behaviors of withdrawal, shaking, and licking of the paws were observed and recorded. A total of three repeated trials were performed, and the average number of behaviors recorded was checked.
(§4) Oxaliplatin (Sigma-Aldrich) dissolved in a 5% glucose solution to 2 mg/mL was single-intraperitoneally administered at 6 mg/kg to twelve 5-week-old c57/bl6 male mice. Significant pain was observed from about 3 days after the first injection.
Cold allodynia was caused in the oxaliplatin-induced neuropathic pain animal models by way of the method in Example 2.
On the 3rd day after the oxaliplatin injection, animal models showing a statistically significant level of pain were divided into a drug group administered 10 mg/kg syringaresinol (syringaresinol, n=6) and a control group orally administered 0.06% Tween 80 (vehicle, n=6), and then were administered the corresponding drugs to thereby cause cold allodynia and mechanical allodynia after 1 hour.

For experiment [6] the test system is unchanged. In words: Mechanical allodynia (von Frey filament) in oxaliplatin-induced neuropathic pain animal models. Format: in vivo, c57/bl6 male mice. To be noted: 10 mg/kg oral, 1 hour after administration, day 3 after oxaliplatin injection, 0.4 g von Frey filament. As to the method: as §4
The behavior of withdrawal to a stimulus using a 0.4 g von Frey filament (Touch test 3.61, Stoelting, USA), which causes mechanical allodynia in the oxaliplatin-induced neuropathic pain animal models, was recorded and observed. To measure the withdrawal response of the paws in the animal models, the animals were put in a transparent acrylic box (7 cm×10 cm) placed on a wire mesh with a grid size of 5 mm and given time to acclimate to the environment. After about 1 hour, the acclimation of the mice was checked, and the medial part of the affected paw was stimulated with the quantified von Frey filament through a wire mesh grid. A total of 10 stimulations sufficient to slightly bend the von Frey filament were given at intervals of 20 seconds, and the number of withdrawals was measured. […]

For experiment [7], the system named is peripheral nerve injury (PNL)-induced neuropathic pain animal models. In words: Mechanical pain (von Frey filament) in peripheral nerve injury (partial sciatic nerve ligation, PNL)-induced neuropathic pain models. To be noted: 10 mg/kg oral, PNL mice. Format: in vivo, c57/bl6 male mice. On the procedure: The behavior of withdrawal to a stimulus using a 0.4 g von Frey filament (Touch test 3.61, Stoelting, USA), which causes mechanical allodynia in the oxaliplatin-induced neuropathic pain animal models, was recorded and observed. To measure the withdrawal response of the paws in the animal models, the animals were put in a transparent acrylic box (7 cm×10 cm) placed on a wire mesh with a grid size of 5 mm and given time to acclimate to the environment. After about 1 hour, the acclimation of the mice was checked, and the medial part of the affected paw was stimulated with the quantified von Frey filament through a wire mesh grid. A total of 10 stimulations sufficient to slightly bend the von Frey filament were given at intervals of 20 seconds, and the number of withdrawals was measured.
After twelve 5-week-old c57/bl6 male mice were respiratory anesthetized with 2.5% isoflurane, the skin on the posterior side of the right hip joint was shaved and incised, and then the sciatic nerve between the biceps femoris was found and confirmed. Thereafter, the […] was penetrated and ligated by a 7 m/m (⅜) silk thread, and then the cut skin was sutured. […]

[8] abbreviates: BV2 cells stimulated with 1 μg/mL oxaliplatin for 3 hours, versus normal control.
[9] abbreviates: BV2 cells, syringaresinol 10 μg/mL and 100 μg/mL for 1 hour, then 1 μg/mL oxaliplatin for 3 hours.

As for `O=C1[O][Pt]2([NH][C@@H]3CCCC[C@H]3[NH]2)[O]C1=O` [oxaliplatin, reference compound], in experiment [1] (setting [8]), the “protein expression of iNOS” value is “significantly increased”. For the same molecule, the “protein expression level of p-ERK MAPK” value in experiment [2] (setting [8]) is recorded as “significantly increased”. In addition, in experiment [3] (setting [8]), the “protein expression level of p-NF-κB” value is “significantly increased”.
For the molecule `COc1cc(C2OCC3C(c4cc(OC)c(O)c(OC)c4)OCC23)cc(OC)c1O` (stereo not shown) [syringaresinol], the “cold allodynia compared with the control group (vehicle)” value in experiment [4] and in experiment [5] was “mitigated” each time. For the same molecule, the “mechanical allodynia compared with the control group (vehicle)” value in experiment [6] was “mitigated”. The “mechanical pain compared with the control group (vehicle)” value in experiment [7] is on record as “significantly mitigated”. Besides, the “oxaliplatin-induced increase of iNOS protein expression” value in experiment [1] (setting [9]) is on record as “significantly inhibited”. For the same molecule, the “oxaliplatin-induced increase of p-ERK MAPK protein expression” value in experiment [2] (setting [9]) is given as “significantly inhibited”. Besides, the “oxaliplatin-induced increase of p-NF-κB protein expression” value in experiment [3] (setting [9]) is “significantly inhibited”.
